In the NIST ThermoML archive (doi:10.1021/je400498a):
Numbers after ± are expanded uncertainties.

Assays:
[1] = Molar enthalpy of transition or fusion; settings: Crystal; DSC
[2] = for vapor or sublimation pressure: 298.15 K, Gas chromatography

Row | SMILES | Molar enthalpy of transition or fusion [1] | vapor or sublimation pressure ([2]; Crystal) | vapor or sublimation pressure ([2]; Liquid) | Normal melting temperature ([2]; Crystal, DTA)
1 | NC12CC3CC(CC(C3)C1)C2 [tricyclo(3.3.1.1:3,7)decan-1-amine] | 1.74 ± 0.12 kcal/mol | 0.0115 ± 0.0043 kPa | 0.021 ± 0.003 kPa | 204.2 ± 1.8 °C
2 | CCCCCCCCCCCCN [1-dodecanamine] | – | 0.0016 ± 0.0002 kPa | – | –
3 | CC(C)(N)Cc1ccccc1 [2-methyl-1-phenylpropan-2-amine] | – | – | 0.035 ± 0.008 kPa | –
4 | CC(N)C12CC3CC(CC(C3)C1)C2 (centres undefined) [1-(adamantan-1-yl)ethan-1-amine] | – | – | 0.003 ± 0.002 kPa | –
5 | N[C@@H]1C[C@H]1c1ccccc1 (relative stereo) [trans-2-phenylcyclopropylamine] | – | – | 0.028 ± 0.01 kPa | –
6 | CCCCCCCCCCCCCCN [1-tetradecanamine] | – | 0.00012 ± 8e-05 kPa | – | –
